Values belong to the compound of their own block, whether it stands above or below them.
Assays:
VEGFR2 = target: T1, VEGFR2 (Homo sapiens, UniProt P35968); assay: Cell VEGFR2 receptor-binding assay, displacement/competition; conditions: read-out: 50% inhibitory concentration (IC50)
T1 construct: evaluated by saturation and displacement assays using U87 cells; endogenous in cells; host or cells: U87 (U87MG) human glioblastoma cells
Description: Cells were seeded in 12 well plates at concentration of 5×10^5 cells per well the day before the experiment. […] The cells were then washed with cold PBS and trypsinized. The cell-associated radioactivity was measured using γ-counter (Perkin-Elmer, CT) and the Kd values were calculated by fitting the data by nonlinear regression using GraphPad Prism (GraphPad Software, CA). […] The experiment procedures are similar with those used for the saturation study described above. All experiments were carried out with triplicate samples.

VEGFR = target: T2, VEGFR (Homo sapiens, UniProt P35968); assay: VEGFR cell receptor-binding assay, competition against 64Cu-DOTA-ZD-G2; conditions: U-87 MG cells, 1 uCi 64Cu-DOTA-ZD-G2 per well, 4° C., 1 hour
T2 construct: endogenous in cells; host or cells: U-87 MG human glioblastoma cells
T2 sequence (P35968 20-1356): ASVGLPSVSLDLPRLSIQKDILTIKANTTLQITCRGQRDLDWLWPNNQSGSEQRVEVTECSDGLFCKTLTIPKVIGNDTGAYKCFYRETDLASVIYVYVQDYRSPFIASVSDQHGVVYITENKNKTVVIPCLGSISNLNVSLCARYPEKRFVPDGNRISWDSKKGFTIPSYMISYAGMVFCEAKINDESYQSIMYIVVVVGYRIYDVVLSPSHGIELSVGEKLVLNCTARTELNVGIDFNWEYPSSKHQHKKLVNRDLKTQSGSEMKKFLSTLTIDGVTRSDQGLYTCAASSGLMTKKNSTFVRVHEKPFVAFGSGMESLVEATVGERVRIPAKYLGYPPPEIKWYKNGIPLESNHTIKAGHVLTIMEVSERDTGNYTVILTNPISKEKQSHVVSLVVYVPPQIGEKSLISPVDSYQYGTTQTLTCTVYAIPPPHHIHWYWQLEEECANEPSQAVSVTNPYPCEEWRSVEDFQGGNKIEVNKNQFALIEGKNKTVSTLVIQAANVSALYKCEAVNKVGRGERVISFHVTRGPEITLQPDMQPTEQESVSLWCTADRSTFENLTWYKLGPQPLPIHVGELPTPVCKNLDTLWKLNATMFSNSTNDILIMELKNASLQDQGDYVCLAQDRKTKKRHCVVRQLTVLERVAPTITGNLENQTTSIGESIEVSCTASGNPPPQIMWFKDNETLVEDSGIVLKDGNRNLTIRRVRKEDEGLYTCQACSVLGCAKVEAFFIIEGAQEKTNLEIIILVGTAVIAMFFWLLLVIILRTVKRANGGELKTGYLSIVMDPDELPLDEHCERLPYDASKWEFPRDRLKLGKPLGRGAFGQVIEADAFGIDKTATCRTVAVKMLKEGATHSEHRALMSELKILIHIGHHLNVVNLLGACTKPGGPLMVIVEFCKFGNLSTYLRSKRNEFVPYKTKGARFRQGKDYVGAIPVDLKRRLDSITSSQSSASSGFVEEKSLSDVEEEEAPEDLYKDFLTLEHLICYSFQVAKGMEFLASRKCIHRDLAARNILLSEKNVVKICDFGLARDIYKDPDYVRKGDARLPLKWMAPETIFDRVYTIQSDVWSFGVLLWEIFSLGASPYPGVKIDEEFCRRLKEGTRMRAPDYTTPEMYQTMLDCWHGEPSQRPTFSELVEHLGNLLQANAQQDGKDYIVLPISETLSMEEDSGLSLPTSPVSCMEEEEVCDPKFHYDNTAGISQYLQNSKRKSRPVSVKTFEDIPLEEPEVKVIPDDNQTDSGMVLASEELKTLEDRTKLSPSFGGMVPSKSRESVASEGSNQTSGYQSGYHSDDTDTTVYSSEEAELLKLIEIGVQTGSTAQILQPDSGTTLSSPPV
Description: Cells were seeded in 12-well plates at a density about 5×10^5 cells per well the day before the experiment. […] The HPLC purified radio-tracer was re-dissolved in FBS-free DMEM medium and diluted to 1 uCi/100 uL. […] After incubation at 4° C. for 1 hour, the supernatant with free radio tracer was removed carefully and the cells were then washed with cold PBS for three times and trypsinized. The cells were collected and cell pellet associated radioactivity was measured and the binding affinity values (IC50) were calculated by nonlinear regression using GraphPad Prism (GraphPad Software, CA). All experiments were carried out in triplicate.

[1] = test system: MDA-MB-231 cells and HUVEC; assay: In vitro cellular uptake of FAM-conjugated compounds; type: cell-based, human; conditions: 3 h, 100 nM dose
Description: Each of the FAM-conjugated compounds was incubated with MDA-MB-231 cells seeded 24 h earlier in a 96 well plate with 1% serum medium. Serial dilutions of the compounds were incubated for 3 h. The treated medium was then exchanged for fresh serum free medium. The remaining compound was then quantified from images taken using a Xenogen IVIS-200 (PerkinElmer, Inc. San Jose, Calif.) fluorescent imaging system. The same was done with HUVEC.

VEGF receptor on HUVECs = assay: Blocking assay of FAM-conjugated compounds; type: cell-based, human; conditions: HUVEC
Description: Specific binding of ZD6474-monomer and dimer were tested with blocking studies. Unlabeled ZD6474-monomer and ZD6474-dimer were mixed with the corresponding FAM-conjugated compounds simultaneously for 3 h. Plates were then imaged using the Xenogen IVIS-200 system. Similarly treated cells were fixed in 4% paraformaldehyde and imaged under fluorescent microscopy after staining the nuclei with DAPI.

[2] = test system: U87-MG human glioblastoma xenograft; assay: Ex vivo tumor accumulation and biodistribution fluorescence imaging; type: in vivo, nu/nu female mice
Description: The subcutaneous dorsa of five nu/nu female mice (6 weeks old; 20 g) were inoculated bilaterally with 1×10^7 U87-MG human glioblastoma cells overexpressing the VEGF receptor. Once the tumor diameter was approximately 7-8 mm at 21 days post implant, the mice were divided into three groups for the following injections: (a) free FAM (n=1), (b) FAM-labeled ZD6474-monomer (50 μM; n=2), and (c) FAM-labeled ZD6474-dimer (50 μM, n=2). The animals were manually restrained during intravenous tail injection. All tail vein injections were carried out with a 31 gauge needle placed in a lateral tail vein to inject 100 μL of solution. Twenty-four hours post injection, fluorescence images were acquired using a one second exposure time. The tumors and major organs were dissected and imaged again. […] In vivo fluorescence imaging was performed using the Xenogen IVIS 200 imaging system. To better observe the signal without losses and background due to intervening tissue, fluorescence images were collected ex vivo. Raw counts for each organ were measured using the Xenogen software by drawing oval regions of interest (ROI) around the organ of interest. […] An estimate of the percentage of injected dose accumulated in the tumors was established by comparing measured counts/volume of tissue with the measured counts/volume of a known concentration of the same compound in water at the same exposure. […]

[3] = test system: MDA-MB-231, HCT-116, U-87-MG; assay: In vitro cell viability (MTT), cancer cell lines; type: cell-based, human
Description: (§1) MDA-MB-231 and U-87-MG cell lines were cultured in DMEM medium (Gibco, Grand Island, N.Y.) containing 10% fetal bovine serum (FBS) and 1% penicillin streptomycin at 37° C. in a humidified atmosphere of 5% CO2 in air. HCT 116 (human, colorectal carcinoma cell line) was grown in McCoy's 5a medium modified with 10% FBS. HUVECs (Human Umbilical Vein Endothelial cells) were grown in EGM medium (Lonza), supplemented with 20% FBS, 100 U/mL penicillin, 100 μg/mL streptomycin at 37° C. under a humidified atmosphere of 5% CO2 and 95% O2 with same condition as above. For the cell viability assay, the cells were then seeded into 96-well flat-bottomed tissue-culture plates at 1×10^4 cells/well and incubated for 24 or 72 h in humidified atmosphere of 5% (v/v) CO2 at 37° C. in the presence of each compound. For HUVECs, the flat-bottomed 96-well plate (Corning, N.Y., USA) was coated 1 h at 37° C. with gelatin (0.3% in PBS, pH 7.4) and then washed with PBS. The cells were then treated with ZD6474 monomer and its dimer compounds in the range from 5 nM to 100 μM concentration mixed with 1% FBS added culture medium (HUVECs was 2% FBS added). Following 24 and 72 h of incubation under 5% CO2 at 37° C., the cells were washed with PBS and cell viability was assessed by MTT colorimetric assay. The absorbance of individual wells was measured by using an automated microplate reader (570 nm; VERSAmax, Molecular Devices Corp., Sunnyvale, Calif.). The data are expressed as the percentage of viable cells compared to the survival of a control group and were presented as mean±s.e. (n=6).

HUVECs [4] = assay: In vitro cell viability (MTT), HUVECs; type: cell-based, human
Description: as §1, with “The cells were then treated with ZD6474 monomer and its dimer compounds in the range from 5 nM to 100 μM concentration mixed with 1% FBS added culture medium (HUVECs was 2% FBS added).” left out, “(n=6).” left out

HUVECs [5] = assay: In vitro tubular formation on Matrigel; type: cell-based, human; conditions: 10 μM, 6 h
Description: Growth factor reduced Matrigel (100 μL, BD Bioscience, San Jose, Calif., USA) was added to each well of a 96-well plate and allowed to polymerize for 30 min at 37° C. HUVECs were suspended in the medium at the density of 4×10^5 cells per milliliter, and 0.1 mL of the cell suspension was added to each well coated with Matrigel in the presence of ZD6474 monomer or ZD6474 dimer Cells were incubated at 37° C. for 6 h, and then photographed. The branch points were counted and averaged.

[6] = test system: VEGF165-induced angiogenesis; assay: In vivo Matrigel plug assay; set-up: species or system nu/nu nude mice; conditions: VEGF165 500 ng/mL, compound 100 μM, 10 days
Description: The matrigel plug assays were performed injecting 637 μL of growth factor reduced liquid Matrigel-PBS mixture was into subcutaneously into the flanks of nu/nu nude mice at 4° C. Once inside the animals, the liquid Matrigel-PBS mixture solidifies. For comparison, Matrigel alone as well as Matrigel containing VEGF165 (Peprotech, Rocky Hill, N.J.) at a final concentration of 500 ng/mL to stimulate angiogenesis, and Matrigel with VEGF165 along with either ZD6474 monomer, ZD6474 dimer at a final concentration of 100 μM were used. All of the injection groups consisted of three mice. After 10 days, the mice were sacrificed and the Matrigel plugs were removed, fixed in 4% formalin and photographed.

[7] = In vitro cell viability (MTT), cancer cell lines; type: cell-based, human; conditions: human, MDA-MB-231, HCT-116 and U-87-MG cancer cells; 100 μM, cancer cell lines, 72 h; read-out: cells remaining viable
Description: as §1

T1 sequence (P35968 20-1356): as above

Compound: COc1cc2c(Nc3ccc(Br)cc3F)ncnc2cc1OCC1CCN(C(=O)OCCN(CCOC(=O)NCCN)CCOC(=O)N2CCC(COc3cc4ncnc(Nc5ccc(Br)cc5F)c4cc3OC)CC2)CC1 [ZD-G2]
IC50 (VEGFR2): 0.023 ± 0.002 nM
IC50 (VEGFR): 0.026 nM

Compound: COc1cc2c(Nc3ccc(Br)cc3F)ncnc2cc1OCC1CCN(C(=O)CCCCCC(N)C(=O)N2CCC(COc3cc4ncnc(Nc5ccc(Br)cc5F)c4cc3OC)CC2)CC1 (stereo not shown) [ZD6474-dimer]
toxicity to the cancer cells ([3]; 5 nM to 50 μM): low toxicity
cells remaining viable ([3]; 100 μM, cancer cell lines, 72 h): around 50%
concentration at which cell viability begins to be affected (HUVECs [4]): 500 nM
number of tube branches (control group 100%) (HUVECs [5]): 75±5.2%
appearance of Matrigel plugs (blood vessel formation) [6]: almost the same as the PBS treated negative control group

Compound: COc1cc2c(Nc3ccc(Br)cc3F)ncnc2cc1OCC1CCN(C)CC1 [ZD-G1, vandetanib, reference compound]
viability at 72 h, 100 µM [7]: ~50%
concentration at which cell viability begins to be affected (HUVECs [4]): 500 nM
number of tube branches (control group 100%) (HUVECs [5]): 52.0±4.8%

More lines, main results first:

blocking of fluorescence (cellular uptake images) (VEGF receptor on HUVECs; 100 μM ZD6474-dimer): Complete blocking of fluorescence
loss of FAM signal when mixed with unlabeled dimer (VEGF receptor on HUVECs; 100× unlabeled ZD6474-dimer, 3 h): ~90%
total injected dose ending up in the tumors ([2]; 24 h after i.v. injection, estimate against known dye concentrations): at least 6%
fluorescent intensity of tumors relative to tumors in other groups and organs ([2]; ex vivo, 24 h following i.v. injection): about 20 ×
Compound: COc1cc2c(Nc3ccc(Br)cc3F)ncnc2cc1OCC1CCN(C(=O)CCCCCC(NC(=O)c2ccc(C(=O)O)c(-c3c4ccc(=O)cc-4oc4cc(O)ccc34)c2)C(=O)N2CCC(COc3cc4ncnc(Nc5ccc(Br)cc5F)c4cc3OC)CC2)CC1 (stereo not shown) [dimer-FAM]
uptake in HUVECs compared with MDA-MB-231 cells [1]: overall higher uptake of dimer-FAM by HUVECs

mean blocked signal relative to blocked dimer FAM (VEGF receptor on HUVECs; 100× unlabeled compound, 10 μM dose): over 10 ×
Compound: COc1cc2c(Nc3ccc(Br)cc3F)ncnc2cc1OCC1CCN(C(=O)c2ccc(C(=O)O)c(-c3c4ccc(=O)cc-4oc4cc(O)ccc34)c2)CC1 [monomer-FAM]
